One data set concerns HCT-116 cells. The conditions noted are these: 48 h. As for the experimental part:
(§1) The anticancer activity of the dolastatin 15 analogs 5a‐i was tested in comparison with cemadotin and the N‐methylated cemadotin derivative 5j against three human cancer cell lines, namely prostate adenocarcinoma PC‐3 cells, colorectal carcinoma HCT‐116 cells, and triple‐negative breast cancer MDA‐MB‐468 cells. In vitro cell viability and cytotoxicity assays were conducted and IC50 curves, and values were determined using the resazurin assay and fluorometric read‐out after 48 h cells’ treatment with the compounds in concentrations covering the micro‐ and nanomolar range (Figure S83, Supporting Information, SI).
(§2) Material and methods for cell-based assays
(§3) Human cell culture materials and cultivation methodology
(§4) The in vitro cell viability and cytotoxicity assays were performed with the human prostate cancer cell line PC-3, the human colorectal cancer cell line HCT-116 and the human triple-negative breast cancer cell line MDA-MB-468; the fluorescence microscopic inspections just with PC-3 cells. The cell lines were obtained from DSMZ (Braunschweig, Germany) and ATCC (Manassas, VA, USA) and cultivated in their specific growth medium. PC-3 cells were cultivated in RPMI 1640 supplemented with 1% (v/v) glutamine, and 10% (v/v) he at-inactivated fetal calf serum (FCS); HCT-116 was cultured in McCoy’s 5a Modified Medium supplemented with 10% (v/v) heat-inactivated FCS; and for MDA-MB-468, DMEM high glucose (4.5 g/L) supplemented with 10% (v/v) heat-inactivated FCS was used.
(§5) All the basal culture media and supplements, like glutamine and FCS, PBS and 0.05% trypsin-EDTA for cell detachment were purchased from Capricorn Scientific GmbH (Ebsdorfergrund, Germany). Cell culture plastics were used from TPP (Trasadingen, Switzerland), Greiner Bio-One (Frickenhausen, Germany) and Sarstedt (Nürnbrecht, Germany). Digitonin was purchased from Riedel De Haën (Seelze, Germany) and DMSO from Duchefa Biochemie (Haarlem, The Netherlands). Resazurin was used from Sigma-Aldrich Chemie GmbH (Taufkirchen, Germany). The tubulin-specific dye reagent SiR-tubulin kit (SC002) and verapamil were purchased from Spirochrome AG (Stein am Rhein, Switzerland), the nuclei stain H33342 was from Thermo Fisher Scientific (Waltham, MA, USA).
(§6) Cultivation was routinely done in T-75 flasks in a humidified atmosphere with 5% CO2 at 37 °C until subconfluency (~ 70-80%) was reached, and the cells were ready for subsequent sub-culturing or assay usage. For that, the adherent cells were rinsed with PBS and detached with trypsin/EDTA (0.05% in PBS) prior to cell passaging and seeding.
(§7) Cell viability assay - methodology
(§8) The impacts of the newly synthesized dolastatin derivatives analogs on the viability and proliferation of the three human cancer cell lines were investigated by performing fluorometric resazurin-based cell viability assays, following a protocol well established in our lab.[3,4] In 3 R. Kufka, R. Rennert, G. N. Kaluđerović, L. Weber, W. Richter, L. A. Wessjohann, Beilstein J. Org. Chem.
(§9) 4 Y. T. H. Lam, J. Hoppe, Q. N. Dang; A. Porzel, A. Soboleva, W. Brandt, R. Rennert, H. Hussain, M. D. Davari, […]
(§10) brief, the cells were seeded in low densities in 96-well plates (PC-3: 3.000 cells/well; HCT-116: 5.000 cells/well; MDA-MB-468: 10.000 cells/well) yielding a seeding confluency of ~ 10 – 20%, and were allowed to adhere overnight. Subsequently, the cells were treated for 48 h with dilutions series (25.6 pM – 10 µM in 5-fold dilutions) of the test compounds (1 mM DMSO stocks). For control measures, cells were treated in parallel with 1% DMSO (negative control, representing the final DMSO content of the highest concentrated sample point, for data normalization set to 100% cell viability) and 100 µM digitonin (positive control, for data normalization set to 0% cell viability). After finalization of the 48 h incubation, the incubation media were discarded, and cells were rinsed once with PBS. Resazurin solution in basal medium

The next data set deals with MDA-MB-468 cells. The conditions noted are these: 48 h. The method, then: as §1, §2, §3, §4, §5, §6, §7, §8, §9, §10
In a further data set the test system is PC-3 cells. The conditions noted are these: 48 h. As for the experimental part: as §1, §2, §3, §4, §5, §6, §7, §8, §9, §10
The subject of data set [1] is microtubule network in PC-3 cells.
Data set [2] deals with PC-3, HCT-116 and MDA-MB-468 cells. The conditions noted are these: all cancer cells tested; resazurin, 48 h (Figure S84). The method, then:
as §10

Molecules are shown by their SMILES. *1 amine or outer side, *2 acyl side, *3 side chain or, on linkers, in order; H or OH if unused. Where a SMILES comes first, the peptide text is derived from it. [ ]: non-standard residue; d: D form. The star is where a group is joined. N(CH2CH2CO)Gly = O=C(CN(CCC(=O)[*:3])[*:1])[*:2]; NMe2Val = CC(C)[C@@H](C(=O)*)N(C)C; NHhexadecyl = CCCCCCCCCCCCCCCCN*; X1 = O=C(CN(Cc1cncs1)[*:1])[*:2]; NFurfurylGly = O=C(O)CNCc1ccco1; NMe(benzyl) = CN(Cc1ccccc1)*; NMeV = CN[C@H](C(=O)O)C(C)C; X2 = O=C(NCCCCN*)OCc1ccccc1; Nphe = O=C(O)CNCc1ccccc1; NHcHex = C1CCC(N*)CC1; NHBn = c1ccc(CN*)cc1; NHHex = CCCCCCN*; NHBu = CCCCN*

Turning to `CCCCNC(=O)CN(C(=O)[C@@H]1CCCN1C(=O)[C@H](C(C)C)N(C)C(=O)[C@@H](NC(=O)[C@H](C(C)C)N(C)C)C(C)C)[C@@H](C)C(=O)NCc1ccc(OC)cc1` [Peptide 11g], the IC50 in the data set with HCT-116 cells, in the data set with MDA-MB-468 cells and in the data set on PC-3 cells was over 10000 nM each time.

For the molecule `CC(C)[C@H](NC(=O)[C@H](C(C)C)N(C)C)C(=O)N(C)[C@H](C(=O)N1CCC[C@H]1C(=O)N1CCC[C@H]1C(=O)NCc1ccccc1)C(C)C` [cemadotin, reference compound] (NMe2Val-V[NMeV]PP-NHBn), the figures for the half-maximal inhibitory concentration (IC50) in the data set on HCT-116 cells, in the data set with MDA-MB-468 cells and in the data set on PC-3 cells were 1 nM, 2.5 nM and 1.3 nM, respectively.

Turning to `CCCCNC(=O)CN(Cc1ccccc1)C(=O)[C@@H]1CCCN1C(=O)[C@@H]1CCCN1C(=O)[C@H](C(C)C)N(C)C(=O)[C@@H](NC(=O)[C@H](C(C)C)N(C)C)C(C)C` [Peptide 5a] (NMe2Val-V[NMeV]PP[Nphe]-NHBu), the IC50 was found to be 2200 nM with HCT-116 cells, 820 nM in the data set with MDA-MB-468 cells and 1500 nM with PC-3 cells. In addition, in data set [1], the “effect on microtubule structure” value was “acts in the initial phase of microtubule network disruption”.

As for `CCCCNC(=O)CN(Cc1cncs1)C(=O)[C@@H]1CCCN1C(=O)[C@@H]1CCCN1C(=O)[C@H](C(C)C)N(C)C(=O)[C@@H](NC(=O)[C@H](C(C)C)N(C)C)C(C)C` [Peptide 5h] (NMe2Val-V[NMeV]PP[X1]-NHBu), the IC50 was 50 nM in the data set on HCT-116 cells, 24 nM in the data set with MDA-MB-468 cells and 30 nM in the data set with PC-3 cells. The “cell and nuclear morphology after treatment” value in data set [1] is “enlarged and showed strongly fragmented nuclei”. For the same molecule, in data set [1], the “effect on microtubule structure” value is on record as “microtubule networks appear to be stabilized rather than destabilized”.

As to `CC(C)[C@H](NC(=O)[C@H](C(C)C)N(C)C)C(=O)N(C)[C@H](C(=O)N1CCC[C@H]1C(=O)N(CC(=O)NC1CCCCC1)[C@@H](Cc1ccccc1)C(=O)NCc1ccco1)C(C)C` [Peptide 11e], the IC50 in the data set with HCT-116 cells is over 10000 nM; with MDA-MB-468 cells, over 10000 nM; in the data set with PC-3 cells, 9300 nM.

Turning to `CC(C)C[C@@H](C(=O)NCc1ccccc1)N(CC(=O)NC(C)(C)C)C(=O)[C@@H]1CCCN1C(=O)[C@H](C(C)C)N(C)C(=O)[C@@H](NC(=O)[C@H](C(C)C)N(C)C)C(C)C` [Peptide 11b], the IC50 in the data set on HCT-116 cells, in the data set with MDA-MB-468 cells and in the data set with PC-3 cells was over 10000 nM throughout.

On to `CCCCNC(=O)CN(Cc1ccco1)C(=O)[C@@H]1CCCN1C(=O)[C@@H]1CCCN1C(=O)[C@H](C(C)C)N(C)C(=O)[C@@H](NC(=O)[C@H](C(C)C)N(C)C)C(C)C` [Peptide 5i] (NMe2Val-V[NMeV]PP[NFurfurylGly]-NHBu), for which the IC50 with HCT-116 cells was over 10000 nM; in the data set with MDA-MB-468 cells, 1200 nM; in the data set on PC-3 cells, 3700 nM.

Take `CCCCCCCCCCCCCCCCNC(=O)CN(Cc1ccccc1)C(=O)[C@@H]1CCCN1C(=O)[C@@H]1CCCN1C(=O)[C@H](C(C)C)N(C)C(=O)[C@@H](NC(=O)[C@H](C(C)C)N(C)C)C(C)C` [Peptide 5f] (NMe2Val-V[NMeV]PP[Nphe]-NHhexadecyl): the IC50 was 2700 nM in the data set with HCT-116 cells, 2100 nM with MDA-MB-468 cells and 2100 nM with PC-3 cells.

For the molecule `COc1ccc(CNC(=O)[C@H](CC(C)C)N(CC(=O)NCc2ccccc2)C(=O)[C@@H]2CCCN2C(=O)[C@H](C(C)C)N(C)C(=O)[C@@H](NC(=O)[C@H](C(C)C)N(C)C)C(C)C)cc1` [Peptide 11a], the IC50 in the data set with HCT-116 cells, in the data set on MDA-MB-468 cells and in the data set with PC-3 cells was over 10000 nM throughout.

For `CC(C)[C@H](NC(=O)[C@H](C(C)C)N(C)C)C(=O)N(C)[C@H](C(=O)N1CCC[C@H]1C(=O)N(CC(=O)NC1CCCCC1)[C@@H](Cc1ccccc1)C(=O)NCc1ccccc1)C(C)C` [Peptide 11d], the IC50 in the data set on HCT-116 cells, with MDA-MB-468 cells and with PC-3 cells was over 10000 nM in each case.

`CC(C)[C@H](NC(=O)[C@H](C(C)C)N(C)C)C(=O)N(C)[C@H](C(=O)N1CCC[C@H]1C(=O)N1CCC[C@H]1C(=O)N(CC(=O)NCc1ccccc1)Cc1ccccc1)C(C)C` [Peptide 5c] (NMe2Val-V[NMeV]PP[Nphe]-NHBn): the results for the IC50 with HCT-116 cells, with MDA-MB-468 cells and with PC-3 cells were 2300 nM, 1100 nM and 1900 nM, respectively.

In the case of `CC(C)[C@H](NC(=O)[C@H](C(C)C)N(C)C)C(=O)N(C)[C@H](C(=O)N1CCC[C@H]1C(=O)N1CCC[C@H]1C(=O)N(CC(=O)NCCCCNC(=O)OCc1ccccc1)Cc1ccccc1)C(C)C` [Peptide 5e] (NMe2Val-V[NMeV]PP[Nphe]-X2), the IC50 in the data set with HCT-116 cells was found to be 4300 nM; in the data set with MDA-MB-468 cells it was 1200 nM; with PC-3 cells, 1600 nM.

In turn, `CCCCCCNC(=O)CN(C(=O)[C@@H]1CCCN1C(=O)[C@H](C(C)C)N(C)C(=O)[C@@H](NC(=O)[C@H](C(C)C)N(C)C)C(C)C)[C@@H](C)C(=O)NCc1ccccc1` [Peptide 11h] came in with an IC50 in the data set on PC-3 cells of over 10000 nM.

With `CC(C)[C@H](NC(=O)[C@H](C(C)C)N(C)C)C(=O)N(C)[C@H](C(=O)N1CCC[C@H]1C(=O)N(CC(=O)NCc1ccccc1)[C@@H](Cc1ccccc1)C(=O)NCc1ccco1)C(C)C` [Peptide 11f], the IC50 in the data set with HCT-116 cells, in the data set with MDA-MB-468 cells and in the data set on PC-3 cells was over 10000 nM in each case.

For the molecule `CCCCCCCCCCCCCCCCNC(=O)CCN(CC(=O)NC1CCCCC1)C(=O)[C@@H]1CCCN1C(=O)[C@H](C(C)C)N(C)C(=O)[C@@H](NC(=O)[C@H](C(C)C)N(C)C)C(C)C` [Peptide 11i] (NMe2Val-V[NMeV]P[N(CH2CH2CO)Gly](NHhexadecyl)-NHcHex), the IC50 is 6400 nM with HCT-116 cells, 3400 nM in the data set with MDA-MB-468 cells and 2300 nM in the data set with PC-3 cells. Moreover, in data set [2], the cytotoxic profile entry is recorded as “inducing the death of all cancer cells tested”.

Turning to `CC(C)[C@H](NC(=O)[C@H](C(C)C)N(C)C)C(=O)N(C)[C@H](C(=O)N1CCC[C@H]1C(=O)N1CCC[C@H]1C(=O)N(CC(=O)NC1CCCCC1)Cc1ccccc1)C(C)C` [Peptide 5d] (NMe2Val-V[NMeV]PP[Nphe]-NHcHex), the IC50 in the data set on HCT-116 cells was 1900 nM; with MDA-MB-468 cells, 1400 nM; in the data set with PC-3 cells it was 1200 nM.

Turning to `CCCCCCNC(=O)CN(Cc1ccccc1)C(=O)[C@@H]1CCCN1C(=O)[C@@H]1CCCN1C(=O)[C@H](C(C)C)N(C)C(=O)[C@@H](NC(=O)[C@H](C(C)C)N(C)C)C(C)C` [Peptide 5b] (NMe2Val-V[NMeV]PP[Nphe]-NHHex), the IC50 is 7200 nM with HCT-116 cells, 2100 nM in the data set on MDA-MB-468 cells and about 5000 nM in the data set on PC-3 cells.

As for `CC(C)[C@H](NC(=O)[C@H](C(C)C)N(C)C)C(=O)N(C)[C@H](C(=O)N1CCC[C@H]1C(=O)N1CCC[C@H]1C(=O)N(C)Cc1ccccc1)C(C)C` [Peptide 5j, N‐Methyl‐cemadotin] (NMe2Val-V[NMeV]PP-{NMe(benzyl)}), the IC50 in the data set with HCT-116 cells, with MDA-MB-468 cells and with PC-3 cells was over 10000 nM each time.

In the case of `CCCCNC(=O)CN(C(=O)[C@@H]1CCCN1C(=O)[C@H](C(C)C)N(C)C(=O)[C@@H](NC(=O)[C@H](C(C)C)N(C)C)C(C)C)[C@@H](CC(C)C)C(=O)NCc1ccccc1` [Peptide 11c], the results for the IC50 with HCT-116 cells, in the data set with MDA-MB-468 cells and with PC-3 cells were 7900 nM, about 5000 nM and over 10000 nM, respectively.

As a reminder, the IC50 is the point on the concentration scale where inhibition reaches its midpoint.
